Measurements published in ChEMBL document CHEMBL1687703, “Modification at the Lipophilic Domain of RXR Agonists Differentially Influences Activation of RXR Heterodimers” (ACS Med Chem Lett, 2010).
Activity calls are given as the source filed them. No cut-off for these calls is given here.

How the values were obtained:
[1] = target: T1, Retinoic acid receptor RXR-alpha (Homo sapiens, UniProt P19793); test: Agonist activity at RXRalpha transfected in […] COS1 cells after 18 hrs by luciferase reporter gene transactivation assay; assay type: functional, cell-based, COS-1
T1 sequence (P19793 whole entry): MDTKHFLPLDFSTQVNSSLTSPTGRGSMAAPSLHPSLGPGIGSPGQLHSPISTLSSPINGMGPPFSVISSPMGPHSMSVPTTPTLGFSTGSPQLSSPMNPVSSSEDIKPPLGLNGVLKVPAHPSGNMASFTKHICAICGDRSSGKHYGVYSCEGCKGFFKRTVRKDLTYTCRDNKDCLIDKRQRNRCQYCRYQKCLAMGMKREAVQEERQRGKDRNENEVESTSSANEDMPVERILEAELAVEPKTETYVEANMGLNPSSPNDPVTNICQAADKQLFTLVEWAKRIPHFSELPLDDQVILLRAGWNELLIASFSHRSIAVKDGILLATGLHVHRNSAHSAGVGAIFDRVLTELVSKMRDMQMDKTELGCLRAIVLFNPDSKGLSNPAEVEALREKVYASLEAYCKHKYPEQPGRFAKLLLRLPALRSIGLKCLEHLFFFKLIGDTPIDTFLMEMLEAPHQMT

[2] = target: Retinoic acid receptor RXR-alpha/oxysterols receptor LXR-alpha (Homo sapiens) (UniProt P19793+Q13133); test: Agonist activity at LXRalpha/RXRalpha transfected in […] COS1 cells at 10^-7 to 10^-6 M after 18 hrs by luciferase reporter gene transactivation assay; assay type: functional, cell-based; conditions: COS-1
[3] = target: T2, Oxysterols receptor LXR-alpha (Homo sapiens) (UniProt Q13133); test: Agonist activity at LXRalpha transfected in […] COS1 cells after 18 hrs by luciferase reporter gene transactivation assay; assay type: functional, cell-based; conditions: COS-1
T2 sequence (whole entry): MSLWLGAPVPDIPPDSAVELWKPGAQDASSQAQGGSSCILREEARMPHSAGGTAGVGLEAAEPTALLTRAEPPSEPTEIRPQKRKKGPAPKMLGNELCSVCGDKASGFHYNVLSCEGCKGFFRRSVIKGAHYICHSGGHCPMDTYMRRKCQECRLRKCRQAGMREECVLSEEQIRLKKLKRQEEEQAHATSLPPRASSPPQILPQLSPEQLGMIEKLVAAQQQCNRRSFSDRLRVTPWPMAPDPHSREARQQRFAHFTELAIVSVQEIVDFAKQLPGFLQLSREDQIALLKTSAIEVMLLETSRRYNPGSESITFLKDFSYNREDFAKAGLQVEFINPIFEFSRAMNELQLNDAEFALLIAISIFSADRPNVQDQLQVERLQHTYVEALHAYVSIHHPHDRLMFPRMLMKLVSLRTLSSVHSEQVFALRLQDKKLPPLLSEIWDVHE

Compound	EC50 [1]	Activity [2]	Activity [3]
CCN(c1ccc(C(C)C)c(OCC2CC2)c1)c1ccc(C(=O)O)cn1	290 nM	Active	
CCN(c1ccc(C(C)C)c(OC(C)C)c1)c1ccc(C(=O)O)cn1	66 nM		
CCN(c1ccc(C(C)C)c(OCCCc2ccccc2)c1)c1ccc(C(=O)O)cn1	820 nM		
CCN(c1ccc(C(C)C)c(OCC(F)(F)F)c1)c1ccc(C(=O)O)cn1	160 nM		
CCCOc1cc(N(CC)c2ccc(C(=O)O)cn2)ccc1C(C)C	450 nM		
CCCCCOc1cc(N(CC)c2ccc(C(=O)O)cn2)ccc1C(C)C	160 nM	Active	
CCN(c1ccc(C(C)C)c(OCc2ccccc2)c1)c1ccc(C(=O)O)cn1	160 nM	Active	
CCN(c1ccc(C(C)C)c(OCCc2ccccc2)c1)c1ccc(C(=O)O)cn1	330 nM		
CCCCCCOc1cc(N(CC)c2ccc(C(=O)O)cn2)ccc1C(C)C	280 nM		
CCN(c1ccc2c(c1)C(C)(C)CCC2(C)C)c1ccc(C(=O)O)cn1			Active
CCN(c1ccc(C(C)C)c(OCC(C)C)c1)c1ccc(C(=O)O)cn1			Active
C=C(C)COc1cc(N(CC)c2ccc(C(=O)O)cn2)ccc1C(C)C	110 nM		
CCN(c1ccc(C(C)C)c(OCC=C(C)C)c1)c1ccc(C(=O)O)cn1	160 nM		
CCCCOc1cc(N(CC)c2ccc(C(=O)O)cn2)ccc1C(C)C	180 nM		
